Details: Liquid, Closed cell (Static) method

Cc1cccnc1N [2-amino-3-methylpyridine]
Details	vapor or sublimation pressure [kPa]
328.7 K	0.098
329.84 K	0.108
336.23 K	0.165
344.13 K	0.271
349.18 K	0.368
354.89 K	0.515
357.64 K	0.598
359.93 K	0.69
363.55 K	0.82
368.61 K	1.08
374.67 K	1.47
387.23 K	2.67
390.85 K	3.13
398.46 K	4.32
405.57 K	5.82
411.35 K	7.34
415.63 K	8.67
421.5 K	10.75
425.85 K	12.61
428.75 K	13.95
431.43 K	15.29
435.66 K	17.74
439.42 K	20.12
443.51 K	23.01
447.94 K	26.5
448.95 K	27.3
450.76 K	28.88
451.84 K	29.81
454.19 K	32.09
455.25 K	33.15
456.78 K	34.61
457.95 K	36.08
460.15 K	38.48
461.72 K	40.22
469.63 K	50.38
478.22 K	63.87
484.84 K	76.42
490.45 K	87.65
495.13 K	99.74
496.05 K	101.44
497.73 K	105.38
498.8 K	108.53
499.88 K	111.35

O [water]
Details	vapor or sublimation pressure [kPa]
297.95 K	3.14
303.85 K	4.41
309.05 K	5.93
313.25 K	7.44
318.75 K	9.86
322.95 K	12.2
329.35 K	16.71
333.45 K	20.18
338.55 K	25.51
342.85 K	30.8
348.25 K	38.66
353.65 K	48.42
358.35 K	58.2
362.95 K	69.67
368.45 K	85.35
371.75 K	96.28
373.25 K	101.56
375.75 K	111.23
